Reference: patent US20240424010A1, “NICOTINAMIDE RIBOSIDE TRIOLEATES CHLORIDE, COMPOSITIONS CONTAINING THIS COMPOUND, AND METHODS OF MAKING AND USING THIS COMPOUND” (SOCIETE DES PRODUITS NESTLE S.A., priority 2021, published 2024)

Assay: Particle size, zeta-potential (dynamic light scattering) and TEM of NRTOCl dispersion and emulsions
Format: physicochemical
Method: The particle size distribution, mean particle diameter (Zeta average size) and zeta-potential of NRTOCl in DI water were measured by using a commercial dynamic light-scattering device (Nano-ZS, Malvern Instruments, Worcestershire, UK). Tecnai F20 TEM/STEM transmission electron microscope (200 kV) was used for characterizing the structure and morphology of prepared NRTOCl nanoparticles. Although NRTOCl is a quaternary ammonium salt, it was not dissolved in water due to the existence of three groups of oleate fatty ester in its structure. Therefore, for the stability study of NRTOCl, this compound was dispersed in DI water using 1% ethanol as a cosolvent. For this purpose, 15 mg of NRTOCl was dissolved in 0.15 ml of ethanol (1%) and then 14.85 ml of DI water was added to the mixture and gently shaken. […] Although the average size of NRTOCl in this sample was 192 nm, the images of TEM disclosed smaller particles with around 50 nm and oval and spherical shapes with aspect ratio close to unity (FIGS. 10A-10C). In the nanoparticles, the NRTOCl structures are stacked on top of each other layer-by-layer. The highly positive charge of NRTO makes the nanoparticles stable in the aqueous phase. […] The total oil phase in these emulsions were 3.2 wt. %, and the concentration of NRTOCl in total volume of each emulsion (15 mL) was 4.4 mM. In the emulsions that used Na-caseinate as an emulsifier, NaN3 (0.01 wt. %) was added to prevent the growth of bacteria. […] An NRTO in canola oil-in-water emulsion was also prepared, using 2 wt. % Tween 80 as an emulsifier in DI water (Tween emulsion). […] As expected by using Tween 80 as a neutral emulsifier, the positive charge of NRTO droplets was almost intact in the emulsion.

[1] = NRTOCl dispersed in DI water with 1% ethanol, 1,000 ppm

particle size (average size) [1]: 192 nm
zeta potential [1]: +65 mV
particle size by TEM (NRTOCl dispersed in DI water, TEM images): around 50 nm
Compound: CCCCCCCC/C=C\CCCCCCCC(=O)OC[C@H]1O[C@@H]([n+]2cccc(C(N)=O)c2)[C@H](OC(=O)CCCCCCC/C=C\CCCCCCCC)[C@@H]1OC(=O)CCCCCCC/C=C\CCCCCCCC.[Cl-] [NRTOCl, nicotinamide riboside trioleates chloride]
